# Experimental data published in US20110152207A1, “USE OF VITAMIN D GLYCOSIDES AND SULFATES FOR TREATMENT OF DISEASE” (priority 2009, published 2011).
# Marks after values point to notes of the source that are not given here.
# Columns and labels:
# [1] = test system: DSS-induced inflammation of the lower colon; assay: Dextran sodium sulfate (DSS) mouse model of IBD; assay type: in vivo; settings: DSS mice
# Description: (§1) In this example, β-gluc-1,25-D3 compounds, alone or in combination with 25-β-glucuronide-25-hydroxyvitamin D3 compounds (hereinafter β-gluc-25-D3) were incorporated into the diet of mice and compared to equimolar 1,25-D3 with respect to therapeutic effects on IBD and induction of calcemia. A standard mouse model of IBD comprising administering dextran sodium sulfate (DSS) to induce inflammation of the lower colon was used to study these effects. Vitamin D treatments were first initiated for 4 days. After 4 days, mice were fed DSS-water for 7 days, allowed one day to recover, and sacrificed. Colon length, plasma calcium, fecal blood score, and body weight were assayed. Colon length is a standard marker of intestinal inflammation in the literature, with shortened colon length being an indicator of inflammation. A 1-cm section of the mid-colon was removed, fixed in formalin, and stained with hematoxylin & eosin for microscopic histopathologic evaluation by a veterinary pathologist blinded to the treatments. Each tissue section received a score from 0 to 4 reflecting absence of lesion to severe, extensive lesion for each of three criteria: (1) the degree of erosion/ulceration of colon mucosa; (2) the degree of infiltration of the tissues by inflammatory cells; and (3) the degree of submucosal edema. The sum of the score of each of these criteria constitutes the histopathological score for the tissue with a zero score representing normal tissue based on all criteria, and the worst possible outcome being a score of 12.
# [2] = Plasma calcium in the DSS mouse model of IBD; assay type: in vivo; settings: DSS mice, 5000 ng/day in diet
# Description: as §1
# [3] = Hypercalcemic effect: plasma calcium in rats under continuous subcutaneous infusion; assay type: in vivo; settings: for Plasma Calcium Mean ± SD: 12th day, in mg/dL (unit assumed)
# Experimental: The pumps were filled aseptically with the appropriate dose of drug dissolved in propylene glycol. The pumps were surgically implanted under the skin on the dorsal neck and shoulder area aseptically. On the 12th day of infusion, rats were deeply anesthetized (isofluorane inhalation) and blood was collected by cardiac puncture for plasma calcium determination. The plasma calcium levels were determined by standard methods.
# [4] = test system: β-glucuronidase activity, duodenum lumen contents; assay: β-glucuronidase cleavage in duodenum lumen contents, free 1,25-D3 by RIA; assay type: in vitro ADME, rats; settings: 150 pg added
# Experimental: (§3) The proximal 25 cm of duodenum/jejunum, the caudal 12 cm of ileum, and the cranial 12 cm of colon were removed. The contents from the lumen of each section were flushed with 3 ml water, collected, and pooled. Three-ml aliquots of intestinal contents were placed into tubes. To the tubes, either 2100 pg (3.53 pmoles) β-gluc-1,25-D3 was added and incubated at 37° C. for 0, 1, 3, or 6 hrs, or 150 pg (0.36 pmoles) of 1,25-D3 was added and incubated for 0 or 6 hrs. […] Acetonitrile (3 ml) was added to each tube after incubation to end all enzymatic activity, after which the 1,25-D3 was extracted. Tritiated 1,25-D3 was added to each tube to assess extraction efficiency. The preparations were cleaned by HPLC, and the samples were analyzed for 1,25-D3 content by RIA (Heartland Assays, Ames, Iowa) (Hollis et al., J. Steroid Biochem. Mol. Biol. 2007 103(3-5):473-6).
# [5] = test system: β-glucuronidase activity, ileum lumen contents; assay: β-glucuronidase cleavage in ileum lumen contents, free 1,25-D3 by RIA; assay type: in vitro ADME, rats; settings: 150 pg added
# Experimental: as §3
# Cyp24 [6] = assay: Cyp24 mRNA expression in colon of mice after a single oral dose; assay type: in vivo; settings: 6 hrs
# Experimental: (§2) Mice were decapitated 6 hrs later following light anesthesia under inhaled halothane. […] Tissue samples were flushed with ice-cold phosphate-buffered saline and immediately homogenized in 1 ml of TRIzol® reagent (Invitrogen Corp., Carlsbad, Calif.). Samples were then kept frozen at −86° C. prior to processing for RNA. For processing RNA, each TRIzol® homogenate was thawed at room temperature and 500 μl placed in a clean microfuge tube, mixed thoroughly with 100 μl chloroform for 15 sec and then centrifuged at 12,000×g for 15 min at 4° C. The upper aqueous phase was removed and mixed with 0.93 volumes of 75% EtOH. The mixture was then applied to an RNeasy spin column (Qiagen Inc., Germantown, Md.) and processed as described by the manufacturer with the exception that an additional wash with 2M NaCl/2 mM EDTA (pH 4.0) was included (Das et al. J Vet Diagn Invest. 2009; 21:771-778). RNA was eluted in 50 μl of water and the concentration obtained by UV spectrometry. One microgram of RNA was then used as a template for production of cDNA in a 20-μl reaction volume using random hexamers and Superscript III as described by the manufacturer (Invitrogen, Carlsbad, Calif.). Afterwards, samples were diluted to 100 μl final volume with TE buffer and stored at −20° C. prior to PCR analysis. Quantitative real-time RT-PCR was performed using a Stratagene Mx3005p cycler (Stratagene, La Jolla, Calif.) and PerfeCTa® SYBR® Green FastMix®, ROX reagent (Quanta Biosciences, Gaithersburg, Md.). Amplification of target cDNAs was accomplished with the following primers: Aliquots (8.3 ng) of cDNA were amplified under the following conditions: 95° C. for 30 sec, followed by 45 cycles of 95° C. for 1 sec and 57° C. for 30 sec. […] Oligonucleotides were obtained from Integrated DNA Technologies (Coralville, Iowa).
# Cyp24 [7] = assay: Cyp24 mRNA expression in duodenum of mice after a single oral dose; assay type: in vivo; settings: for Cyp24 expression in the duodenum, induction over control mice: 24 pmol per os
# Experimental: as §2
# LNCaP cells = assay: LNCaP cell proliferation (CELLTITER BLUE); assay type: cell-based, human; settings: six days, control = 100
# Experimental: LNCaP cells (ATCC # CRL-1740) are malignant prostate cancer cells originally obtained from a lymph node of a person whose prostatic cancer had metastasized to the lymph node. LNCaP cells were grown in tissue culture using RPMI-1640 media with 10% fetal bovine serum. Wells of two 48-well tissue culture plates were seeded with 5000 LNCaP cells/well. […] Half the media was replaced with fresh media with treatments on the third day of the treatment period. By day 6 of treatment, wells of control untreated cells were approximately 60% confluent. The live cell numbers in each well at the end of treatment were assessed using the “CELLTITER BLUE”-brand assay kit (Promega Corp., Madison, Wis.). The assay is based on the ability of living cells to convert a redox dye (resazurin) into a fluorescent end product (resorufin).
# DU-145 cells = assay: DU-145 cell proliferation (CELLTITER BLUE); assay type: cell-based, human; settings: 4 days, control = 100
# Experimental: LNCaP cells (ATCC # CRL-1740) are malignant prostate cancer cells originally obtained from a lymph node of a person whose prostatic cancer had metastasized to the lymph node. LNCaP cells were grown in tissue culture using RPMI-1640 media with 10% fetal bovine serum. Wells of two 48-well tissue culture plates were seeded with 5000 LNCaP cells/well. […] Half the media was replaced with fresh media with treatments on the third day of the treatment period. By day 6 of treatment, wells of control untreated cells were approximately 60% confluent. The live cell numbers in each well at the end of treatment were assessed using the “CELLTITER BLUE”-brand assay kit (Promega Corp., Madison, Wis.). The assay is based on the ability of living cells to convert a redox dye (resazurin) into a fluorescent end product (resorufin). […] A similar study was performed using a second human-derived prostatic cancer cell line known as DU-145 (ATCC# HTB-81). […] Exp. Med. Biol. 1995 375:53-63). The DU-145 cells were propagated in Eagle's Minimum Essential Medium with 10% fetal bovine serum. The cells were treated in culture for just 4 days, with half the media replaced with fresh media on day 3 of treatment. Cells were 40% confluent at the end of treatment.
# intestinal inflammation = settings: Froicu et al., cited from earlier work
# [8] = Plasma 1,25-D3 concentration in mice after a single oral dose (RIA)
# [9] = calcitriol = 1; cited from earlier work
compound,measurement,setting,value
25-β-glucuronide-25-hydroxyvitamin D3 [β-gluc-25-D3],Histopathology score (0-12),[1]; 5000 ng/day,8.22 ± 0.72
same,effect on IBD by itself,[1]; 5000 ng/day,essentially ineffective by itself
same,Colon Length,[1]; 5000 ng/day in diet,5.50 ± 0.20 cm
same,Final Body Weight,[1]; 5000 ng/day in diet,21.16 ± 0.53 g
same,Fecal Blood Score,"[1]; 5000 ng/day, scale 0-3",1.05 ± 0.34
same,Plasma Calcium,[2],8.68 ± 0.27^d mg/dl
"C=C1/C(=C\C=C2/CCC[C@]3(C)[C@@H]([C@H](C)CCCC(C)(C)O)CC[C@@H]23)C[C@@H](O)C[C@@H]1O [1,25-D3, 1,25-dihydroxyvitamin D3, reference compound]",Plasma Calcium Mean ± SD,[3]; 10 ng/day continuous s.c. infusion,10.41 ± 0.27
same,Plasma Calcium Mean ± SD,[3]; 15 ng/day continuous s.c. infusion,10.78 ± 0.26
same,lowest dose inducing a statistically significant increase in plasma calcium levels,[3]; continuous s.c. infusion,15 ng/day
same,Significantly greater than control? Duncan's Multiple Range Test,"[3]; plasma calcium, 15 ng/day",Yes
same,"Measured Free 1,25-dihydroxy vitamin D","[4]; 0 hrs incubation, 37° C.",96 pg
same,"Measured Free 1,25-dihydroxy vitamin D",[4]; 6 hrs incubation,117 pg
same,"Measured Free 1,25-dihydroxy vitamin D",[5]; 0 hrs incubation,129 pg
same,"Measured Free 1,25-dihydroxy vitamin D",[5]; 6 hrs incubation,128 pg
same,increase in Cyp24 in the colon over control mice,Cyp24 [6]; 24 pmol per os,about 5 fold
same,increase in Cyp24 expression in the colon,"Cyp24 [6]; 48 pmol per os, relative to untreated mice",~4.8±4 fold
same,"Cyp24 expression in the duodenum, induction over control mice",Cyp24 [7]; 1 hour,350 fold
same,"Cyp24 expression in the duodenum, induction over control mice",Cyp24 [7]; 3 hours,1600 fold
same,"Cyp24 expression in the duodenum, induction over control mice",Cyp24 [7]; 6 hours,more than 2500 fold
same,induction of Cyp24 gene expression in the duodenum,"Cyp24 [7]; 48 pmol per os, 6 hrs",> 1000 fold
same,Colon Length,[1]; 10 ng/day in diet,5.52 ± 0.20 cm
same,Final Body Weight,[1]; 10 ng/day in diet,21.39 ± 0.82 g
same,Fecal Blood Score,"[1]; 10 ng/day, 0 = no blood to 3 = multiple blood spots",0.33 ± 0.12^c
same,Histopathology score (0-12),"[1]; 10 ng/day, 0 = no lesions, 12 = severe",7.44 ± 0.50
same,Histopathology score (0-12),[1]; 50 ng/day,5.89 ± 0.54^c
same,histopathological scores among the effective treatments,[1]; 50 ng/day,numerically the best
same,improving inflammation,[1]; 50 ng/day,"less effective than the 70-ng/day β-gluc-1,25-D3 plus 5000 ng/day β-gluc-25-D3 combination treatment"
same,Colon Length,[1]; 50 ng/day in diet,5.74 ± 0.17 cm
same,Final Body Weight,[1]; 50 ng/day in diet,20.82 ± 0.43 g
same,Fecal Blood Score,"[1]; 50 ng/day, scale 0-3",0.22 ± 0.12^c
same,Proliferation index (Mean ± SEM),LNCaP cells; 20 nM,69.7 ± 8.4
same,Proliferation index (Mean ± SEM),LNCaP cells; 100 nM,63.8 ± 7.3
same,Proliferation index (Mean ± SEM),"DU-145 cells; DU-145, 20 nM",94.7 ± 1.7
same,Proliferation index (Mean ± SEM),"DU-145 cells; DU-145, 100 nM",89.3 ± 2.4
same,hypercalcemia at the effective dose,intestinal inflammation; 50 ng,results in hypercalcemia
same,dose required to improve intestinal inflammation,intestinal inflammation; mouse model of inflammatory disease,50 ng
same,"plasma 1,25-D3 concentration","[8]; 6 pmol per os, 6 hr time point",not significantly increased
same,"peak plasma 1,25-D3, fold over control mouse plasma 1,25-D3",[8]; 24 pmol per os,~14 fold
same,"peak plasma concentration of 1,25-D3",[8]; 24 pmol per os,1280 pg/mL
same,"time of peak plasma 1,25-D3 concentration",[8]; 24 pmol per os,1 h
same,"plasma 1,25-D3 concentration","[8]; 24 pmol per os, 24 hrs after treatment",slightly below the concentration observed in control animals
C=C1/C(=C\C=C2/CCC[C@]3(C)[C@@H]([C@H](C)/C=C/[C@@H](O)C4CC4)CC[C@@H]23)C[C@@H](O)CC1O (stereo partly drawn) [calcipotriol],calcemic index,[9],about 0.01
